Data from patent US20230322659A1, “STROBILURIN TYPE COMPOUNDS AND THEIR USE FOR COMBATING PHYTOPATHOGENIC FUNGI” (priority 2020, published 2023).

Legend:
[1] = system: Phakopsora pachyrhizi (strain with amino acid substitution F129L in the mitochondrial cytochrome b protein); experiment: Use Example 1: protective control of soybean rust on soybeans (PHAKPA P2), greenhouse; format: in vivo; details: soybean seedlings inoculated 2 days after treatment, % diseased leaf area; for % PHAKPA Disease level P2 at 4 ppm: 4 ppm spray; for % PHAKPA Disease level P2 at 16 ppm: 16 ppm spray
Protocol: (§1) The compound was dissolved in a mixture of acetone and/or dimethylsulfoxide and the wetting agent/emulsifier Wettol, which is based on ethoxylated alkylphenoles, in a ratio (volume) solvent-emulsifier of 99 to 1 to give a total volume of 5 ml. Subsequently, water was added to total volume of 100 ml. This stock solution was then diluted with the described solvent-emulsifier-water mixture to the final concentration given in the table below.
(§2) Leaves of potted soybean seedlings were sprayed to run-off with the previously described spray solution, containing the concentration of active ingredient or their mixture as described below. The plants were allowed to air-dry. The trial plants were cultivated for 2 days in a greenhouse chamber at 23-27° C. and a relative humidity between 60 and 80%. Then the plants were inoculated with spores of Phakopsora pachyrhizi. The strain used contains the amino acid substitution F129L in the mitochondrial cytochrome b protein conferring resistance to Qo inhibitors. To ensure the success the artificial inoculation, the plants were transferred to a humid chamber with a relative humidity of about 95% and 20 to 24° C. for 24 hr. The trial plants were cultivated for up to 14 days in a greenhouse chamber at 23 to 27° C. and a relative humidity between 60 and 80%. The extent of fungal attack on the leaves was visually assessed as % diseased leaf area, the disease level of untreated controls was usually higher than 85%.
(§3) All test results below are given for the control of phytopathogenic fungi containing the amino acid substitution F129L in the mitochondrial cytochrome b protein conferring resistance to Qo inhibitors.

[2] = system: Phakopsora pachyrhizi (strain with amino acid substitution F129L in the mitochondrial cytochrome b protein); experiment: Use Example 2: protective control of soybean rust on soybeans (PHAKPA P6), greenhouse; format: in vivo; details: soybean seedlings inoculated six days after treatment, % diseased leaf area; for % PHAKPA Disease level P6 at 4 ppm: 4 ppm spray; for % PHAKPA Disease level P6 at 16 ppm: 16 ppm spray
Protocol: as §1
as §2, with “active ingredient as described” for “active ingredient or their mixture as described”, “cultivated for six days in” for “cultivated for 2 days in”, “95% and 23 to 27°” for “95% and 20 to 24°”, “23 to 27° C. for” for “20 to 24° C. for”
as §3

SMILES	% PHAKPA Disease level P2 at 4 ppm [1] [%]	% PHAKPA Disease level P2 at 16 ppm [1] [%]	% PHAKPA Disease level P6 at 4 ppm [2] [%]	% PHAKPA Disease level P6 at 16 ppm [2] [%]
CO/N=C(/C(=O)OC)c1cccc(C)c1CO/N=C/c1ccccc1 [Compound 1]	100	96	90	83
CNC(=O)/C(=N/OC)c1cccc(C)c1CO/N=C/c1ccccc1C(F)(F)F [Compound 3]	36	2	83	21
CNC(=O)/C(=N/OC)c1cccc(C)c1CO/N=C/c1ccccc1 [Compound 2]	50	2	63	15
